# Test system: TNF-α
# Test: Cell-Based TNFα Inhibition Assay (PBMCs induced with LPS, Meso Scale)
# Conditions: PBMC, PBMCs pretreated 1 hr, induced with LPS 100 ng/mL 18-24 hrs, supernatant TNF-α; for inhibition at 0.1 µM: 0.1 μM compound; for inhibition at 1 µM: 1 μM compound
# Description: Cell-Based TNFα Inhibition Assay
# PBMCs induced with LPS (lipopolysaccharide): Frozen […] blood mononuclear cells (PBMCs) are purchased from AllCells. Cells are quick thawed, washed once with Roswell Park Memorial Institute medium (RPMI)-1640/10% FBS/1% Penicillin/1% Streptomycin and plated in 96 well plates at 200,000 cells per well. Cells are pretreated with DMSO only or the indicated compounds for 1 hr and then induced with […] for 18-24 hrs. The supernatant is analyzed for TNF-α using Meso Scale assay according to manufacturer's protocol. The negative control wells are treated with DMSO. Compound activity is measured as a percentage of the DMSO control.
SMILES,inhibition at 0.1 µM [%],inhibition at 1 µM [%]
"CC(=O)Nc1scc2c1C(=O)N([C@H](CS(=O)(=O)N(C)C)c1ccc3c(c1)OCO3)C2=O [Compound 27, N-(5-(1-(benzo[d][1,3]dioxol-5-yl)-2-(N,N-dimethylsulfamoyl)ethyl)-4,6-dioxo-5,6-dihydro-4H-thieno[3,4-c]pyrrol-1-yl)acetamide]",< 20,< 20
"CCOc1cc([C@@H](CS(C)(=O)=O)N2C(=O)c3scc(NC(=O)C(F)(F)F)c3C2=O)ccc1OC [Compound 9, (S)—N-(5-(1-(3-ethoxy-4-methoxyphenyl)-2-(methylsulfonyl)ethyl)-4,6-dioxo-5,6-dihydro-4H-thieno[2,3-c]pyrrol-3-yl)-2,2,2-trifluoroacetamide]",< 20,40 to 60
"CS(=O)(=O)C[C@@H](c1ccc2c(c1)OCO2)N1C(=O)c2csc(NC(=O)C(F)(F)F)c2C1=O [Compound 17, N-(5-(1-(benzo[d][1,3]dioxol-5-yl)-2-(methylsulfonyl)ethyl)-4,6-dioxo-5,6-dihydro-4H-thieno[3,4-c]pyrrol-1-yl)-2,2,2-trifluoro Acetamide]",< 20,< 20

# Reference: US11236105B2, “Bicyclic compounds and methods of use” (BioTheryX, Inc., priority 2017, dated 2022)
